Laboratory results reported in article PMC11372264, “^61Cu-PSMA–Targeted PET for Prostate Cancer: From Radiotracer Development to First-in-Human Imaging” (Journal of Nuclear Medicine, 2024).

What was measured:
LNCaP cells = test: Cellular uptake and distribution (surface-bound, internalized) in LNCaP cells; type: cell-based; conditions: 1 h, 37°C
Procedure: (§1) The lipophilicity of [^61Cu]Cu-DOTAGA-PSMA-I&T and [^61Cu]Cu-NODAGA-PSMA-I&T was assessed by determining the distribution coefficient in a 1:1 mixture of 1-octanol–to–phosphate-buffered saline at pH 7.4, in comparison with all reference radiotracers. Inhibitory concentration of 50% (IC50) was assessed by competition binding on lymph node carcinoma of the prostate (LNCaP) using ((S)-1-carboxy-5-(4-(-^125I-iodo-benzamido)pentyl)carbamoyl)-L-glutamic acid as the reference radioligand. Cellular uptake and distribution were assessed in LNCaP cells at 5, 15, 30, 60, and 120 min after exposure to the radioligand at 37°C, either alone or in the presence of 10 µM 2-(phosphonomethyl)pentanedioic acid to distinguish between specific and nonspecific uptake.
FIGURE 1. In vitro assessment in LNCaP cells after 1 h at 37°C. (A) Competition binding activity curves of ^natCu-DOTAGA-PSMA-I&T, ^natCu-NODAGA-PSMA-I&T, and ^natGa-PSMA-11 on LNCaP cells after 1 h of incubation on ice, using ((S)-1-carboxy-5-(4-(-^125I-iodo-benzamido)pentyl)carbamoyl)-L-glutamic acid ([^125I-BA]KuE) at concentration of 0.2 nM as reference radioligand. (B) Cellular uptake (surface-bound + internalized). Cell surface–bound and internalized fractions are indicated. Results represent mean ± SD of specific (total − nonspecific) uptake from minimum of 2 separate experiments, each in triplicate.

[1] = Lipophilicity: distribution coefficient in 1:1 1-octanol/phosphate-buffered saline at pH 7.4; type: physicochemical
Procedure: as §1

[2] = Stability of radiotracer at room temperature (radiochemical purity over time); type: physicochemical; conditions: 24 MBq/nmol, 4 h
Procedure: [^61Cu]Cu-DOTAGA-PSMA-I&T and [^61Cu]Cu-NODAGA-PSMA-I&T were synthesized with radiolabeling yield of more than 98% and radiochemical purity of more than 97% (radio–high-performance liquid chromatography analysis) at an apparent molar activity of 24 MBq/nmol. Thus, no purification was required after labeling. Although [^61Cu]Cu-DOTAGA-PSMA-I&T needed elevated temperature (95°C) and 15 min of reaction time, [^61Cu]Cu-NODAGA-PSMA-I&T was synthesized at room temperature within 5 min. After 4 h at room temperature, the radiochemical purity of [^61Cu]Cu-DOTAGA-PSMA-I&T dropped to approximately 90%, whereas it remained stable (∼97%) for [^61Cu]Cu-NODAGA-PSMA-I&T. All analytic data and quality control results are provided in Supplemental Figures 1 and 2 and in Supplemental Tables 1 and 2.
With inexpensive ^natNi as the starting material, highly pure ^61Cu could be produced with radionuclidic purity exceeding 99.99% at 12 h after synthesis (details on the production will be published elsewhere). The preparation of [^61Cu]Cu-NODAGA-PSMA-I&T was performed in widely used buffers at room temperature within 5 min. […] High labeling yields and suitable molar activities for clinical use eliminate the need for any purification step after labeling. […]

LNCaP xenografts = test: Biodistribution in LNCaP xenografts; type: in vivo, mice
Procedure: All animal experiments were conducted in accordance with Swiss animal welfare laws and regulations under license number 30515 granted by the Veterinary Office, Department of Health, Canton Basel-Stadt, Switzerland. Male athymic nude-Foxn1^nu/Foxn1^+ mice (Envigo), 4–6 wk old, were inoculated subcutaneously on the shoulder with 10^7 LNCaP cells, freshly suspended in a 1:1 ratio of sterile minimum essential medium with basal medium Eagle and Matrigel. The tumors were allowed to grow to a volume of approximately 200 mm^3.
The biodistribution of [^61Cu]Cu-DOTAGA-PSMA-I&T and [^61Cu]Cu-NODAGA-PSMA-I&T (100 µL/200 pmol/2–3 MBq) was compared with that of [^68Ga]Ga-DOTAGA-PSMA-I&T, [^68Ga]Ga-NODAGA-PSMA-I&T, and [^68Ga]Ga-PSMA-11 (100 µL/200 pmol/3–5 MBq), as well as [^18F]PSMA-1007 (100 µL/70 pmol/15 MBq). This comparison was conducted at 1 h after injection for all radiotracers and at 4 h after injection for the ^61Cu-labeled tracers and [^18F]PSMA-1007. The specificity of the ^61Cu-labeled tracers was assessed at 1 h after injection by blocking studies with 2-(phosphonomethyl)pentanedioic acid (100 µL/1.3 µmol) being injected 3–5 min before the injection of the radiotracer.

[3] = In vivo metabolic stability (radio-HPLC of urine, liver and kidney homogenates); design: species or system BALB/c mice; conditions: 1 h after injection
Procedure: The stability of [^61Cu]Cu-DOTAGA-PSMA-I&T and [^61Cu]Cu-NODAGA-PSMA-I&T was assessed by radio–reversed-phase high-performance liquid chromatography in urine and in liver and kidney homogenates from healthy BALB/c mice after injection of 100 µL/400 pmol/8–9 MBq of each radiotracer. Details are provided in the supplemental materials.

[4] = 1 h after injection, blocking with 2-(phosphonomethyl)pentanedioic acid 1.3 µmol

## O=C([O-])CN1CCN(CC(=O)O)CCN(CC(=O)[O-])CCN(C(CCC(=O)N[C@H](Cc2ccc(O)c(I)c2)C(=O)N[C@H](Cc2ccccc2)C(=O)N[C@H](CCCCNC(=O)CCCCCCC(=O)NCCCC[C@H](NC(=O)N[C@@H](CCC(=O)O)C(=O)O)C(=O)O)C(=O)O)C(=O)O)CC1.[61Cu+2] (stereo partly drawn) [[^61Cu]Cu-DOTAGA-PSMA-I&T, DOTAGA-(l-y)fk(sub-KuE)]
LNCaP cells; specific uptake
  Cellular uptake (surface-bound + internalized): 26.6% ± 1.3%
LNCaP cells; % of applied activity
  Internalized fraction: 13.3 ± 0.5%
  Surface-bound fraction: 13.4 ± 0.8%
[1]
  logDpH7.4: −2.69 ± 0.44
[2]
  Radiochemical purity after 4 h at room temperature: approximately 90%
LNCaP xenografts; 1 h after injection
  Biodistribution, Adrenals: 9.35 ± 1.50 %IA/g
  Biodistribution, Blood: 2.06 ± 0.24 %IA/g
  Biodistribution, Femur: 2.31 ± 0.36 %IA/g
  Biodistribution, Heart: 3.73 ± 0.32 %IA/g
  Biodistribution, Intestine: 8.95 ± 0.62 %IA/g
  Biodistribution, Kidneys: 57.1 ± 6.3 %IA/g
  Biodistribution, Liver: 19.3 ± 3.3 %IA/g
  Biodistribution, Lung: 6.35 ± 0.35 %IA/g
  Biodistribution, Muscles: 1.00 ± 0.05 %IA/g
  Biodistribution, Pancreas: 2.82 ± 0.67 %IA/g
  Biodistribution, Salivary glands: 5.60 ± 1.39 %IA/g
  Biodistribution, Spleen: 4.64 ± 1.35 %IA/g
  Biodistribution, Stomach: 7.77 ± 0.62 %IA/g
  Biodistribution, Tumor (tumor uptake): 6.06 ± 0.25 %IA/g
  Tumor-to-Adrenals ratio: 0.66 ± 0.13
  Tumor-to-Blood ratio: 2.97 ± 0.23
  Tumor-to-Intestine ratio: 0.68 ± 0.07
  Tumor-to-Kidneys ratio: 0.11 ± 0.01
  Tumor-to-Liver ratio: 0.32 ± 0.05
  Tumor-to-Muscles ratio: 6.08 ± 0.22
  Tumor-to-Salivary glands ratio: 1.14 ± 0.34
  Tumor-to-Spleen ratio: 1.37 ± 0.29
LNCaP xenografts; [4]
  Biodistribution, Adrenals: 3.25 ± 0.92 %IA/g
  Biodistribution, Blood: 1.36 ± 0.15 %IA/g
  Biodistribution, Femur: 1.50 ± 0.21 %IA/g
  Biodistribution, Heart: 2.34 ± 0.11 %IA/g
  Biodistribution, Intestine: 8.78 ± 2.18 %IA/g
  Biodistribution, Kidneys: 8.76 ± 1.57 %IA/g
  Biodistribution, Liver: 14.3 ± 1.7 %IA/g
  Biodistribution, Lung: 5.62 ± 1.61 %IA/g
  Biodistribution, Muscles: 0.63 ± 0.10 %IA/g
  Biodistribution, Pancreas: 1.89 ± 0.34 %IA/g
  Biodistribution, Salivary glands: 3.25 ± 0.94 %IA/g
  Biodistribution, Spleen: 2.46 ± 0.47 %IA/g
  Biodistribution, Stomach: 7.52 ± 1.58 %IA/g
  Biodistribution, Tumor: 3.31 ± 0.26 %IA/g
LNCaP xenografts; 4 h after injection
  Biodistribution, Adrenals: 6.46 ± 2.38 %IA/g
  Biodistribution, Blood: 1.12 ± 0.24 %IA/g
  Biodistribution, Femur: 1.69 ± 0.25 %IA/g
  Biodistribution, Heart: 2.08 ± 0.33 %IA/g
  Biodistribution, Intestine: 7.74 ± 1.76 %IA/g
  Biodistribution, Kidneys: 22.1 ± 2.2 %IA/g
  Biodistribution, Liver: 13.9 ± 2.2 %IA/g
  Biodistribution, Lung: 4.67 ± 0.76 %IA/g
  Biodistribution, Muscles: 0.48 ± 0.08 %IA/g
  Biodistribution, Pancreas: 1.71 ± 0.23 %IA/g
  Biodistribution, Salivary glands: 2.31 ± 0.19 %IA/g
  Biodistribution, Spleen: 2.95 ± 0.73 %IA/g
  Biodistribution, Stomach: 7.10 ± 0.97 %IA/g
  Biodistribution, Tumor (tumor uptake): 4.88 ± 0.63 %IA/g
  Tumor-to-Adrenals ratio: 0.81 ± 0.22
  Tumor-to-Blood ratio: 4.56 ± 1.49
  Tumor-to-Intestine ratio: 0.66 ± 0.23
  Tumor-to-Kidneys ratio: 0.22 ± 0.04
  Tumor-to-Liver ratio: 0.35 ± 0.05
  Tumor-to-Muscles ratio: 10.5 ± 2.8
  Tumor-to-Salivary glands ratio: 2.13 ± 0.43
  Tumor-to-Spleen ratio: 1.73 ± 0.46
LNCaP xenografts; LNCaP xenografts
  Blood values and background activity, fold higher than [^61Cu]Cu-NODAGA-PSMA-I&T: approximately 10 fold
[3]
  Release of ^61Cu in the liver: approximately 70%
